Data reported in patent publication US7132431B2, “Anti-malarial compounds” (The University of Liverpool, priority 2001, dated 2006).
Where two headings read alike, the source gives them in different places. Blank lines part the entries; values can stand above or below the molecule they belong to.

Assays:
[1] = tested on: K1 strain of P. falciparum (chloroquine resistant); assay: In vitro antimalarial activity, 48-h [3H]-hypoxanthine incorporation assay, K1 strain; assay type: cell-based, Plasmodium falciparum
Method: Antimalarial activity. Two strains of P. falciparum were used in this study: (a) The K1 strain which is known to be CQ resistant and (b) the HB3 strain which is sensitive to all antimalarials. Parasites were maintained in continuous culture using the method of Jensen and Trager. (J. Parasitol., 1977, 63, 883-886) Cultures were grown in flasks containing human erythrocytes (2-5%) with parasitemia in the range of 1% to 10% suspended in RPMI 1640 medium supplemented with 25 mM HEPES and 32 mM NaHCO3, and 10% human serum (complete medium). Cultures were gassed with a mixture of 3% O2, 4% CO2 and 93% N2. Antimalarial activity was assessed with an adaption of the 48-h sensitivity assay of Desjardins et al. (Antimicrob. Agents. Chemother., 1979, 16, 710-718.) using [^3H]-hypoxanthine incorporation as an assessment of parasite growth. Stock drug solutions were prepared in 100% dimethylsulphoxide (DMSO) and diluted to the appropriate concentration using complete medium. Assays were performed in sterile 96-well microtitre plates, each plate contained 200—1 of parasite culture (2% parasitemia, 0.5% haematocrit) with or without 10—1 drug dilutions. Each drug was tested in triplicate and parasite growth compared to control wells (which consituted 100% parasite growth). After 24-h incubation at 37° C., 0.5_Ci hypoxanthine was added to each well. Cultures were incubated for a further 24 h before they were harvested onto filter-mats, dried for 1 h at 55° C. and counted using a Wallac 1450 Microbeta Trilux Liquid scintillation and luminescence counter. IC50 values were calculated by interpolation of the probit transformation of the log dose—response curve. In Vivo Testing Protocol Male, random Swiss albino mice weighing 18-22 g were inoculated intraperitoneally with 10^7 parasitised erythrocytes with P. yoelii NS strain. Animals were then dosed daily via two routes (intraparential or oral) for four consecutative days beginning on the day of infection. Compounds were dissolved or suspended in the vechile solution consisting of methanol, phosphate buffered saline and DMSO (2:5:3 v/v).

[2] = tested on: HB3 strain of P. falciparum (chloroquine sensitive); assay: In vitro antimalarial activity, 48-h [3H]-hypoxanthine incorporation assay, HB3 strain; assay type: cell-based; conditions: Plasmodium falciparum; chloroquine sensitive HB3 isolate, n=4
Method: (§1) Antimalarial activity. Two strains of P. falciparum were used in this study: (a) The K1 strain which is known to be CQ resistant and (b) the HB3 strain which is sensitive to all antimalarials. Parasites were maintained in continuous culture using the method of Jensen and Trager. (J. Parasitol., 1977, 63, 883-886) Cultures were grown in flasks containing human erythrocytes (2-5%) with parasitemia in the range of 1% to 10% suspended in RPMI 1640 medium supplemented with 25 mM HEPES and 32 mM NaHCO3, and 10% human serum (complete medium). Cultures were gassed with a mixture of 3% O2, 4% CO2 and 93% N2. Antimalarial activity was assessed with an adaption of the 48-h sensitivity assay of Desjardins et al. (Antimicrob. Agents. Chemother., 1979, 16, 710-718.) using [^3H]-hypoxanthine incorporation as an assessment of parasite growth. Stock drug solutions were prepared in 100% dimethylsulphoxide (DMSO) and diluted to the appropriate concentration using complete medium. […] Cultures were incubated for a further 24 h before they were harvested onto filter-mats, dried for 1 h at 55° C. and counted using a Wallac 1450 Microbeta Trilux Liquid scintillation and luminescence counter. IC50 values were calculated by interpolation of the probit transformation of the log dose—response curve. […]

[3] = Biliary and urinary excretion and tissue distribution of radioactivity 5 h after i.v. [3H]AQ or [3H]ISQ; assay type: in vivo, Male Wistar rats; conditions: for % of dose accounted for (bile, tissues, plasma, urine): total recovery
From the text: Investigation of Biliary and Urinary Excretion of [^3H] AQ and [^3H] ISQ After Administration to Male Wistar Rats. […] The rats were carefully monitored throughout the procedure to ensure that anaesthesia was maintained. A small incision was made in the throat and the trachea was located, via blunt dissection of the surrounding connective tissue. A 1.57 mm (I.D.) polythene tube cannula was inserted and securely fastened. […] A syringe containing saline was attached to the jugular cannula to act as a seal preventing air bubbles from entering the vein. An incision was made along the midline of the abdomen. The common bile duct was located and allowed to dilate before a 0.58 mm (I.D.) cannula was inserted. Control bile was obtained. The penis was ligated, to allow urine to be collected during the experiment. […] DMSO replaced the saline in the jugular cannula to prevent the drug precipitating out of solution during dosing. A 500 μl Hamilton syringe was filled with either [^3H]AQ or [^3H]ISQ (54 μmol/kg, 25 μCi/kg) and connected to the cannula. The radiolabelled compounds were infused via the jugular vein over a period of 30 mins to prevent respiratory depression caused by DMSO. Bile fractions were collected at hourly intervals for 5 h from the start of dosing, All samples were weighed and there weight recorded. After 5 h any remaining urine was aspirated from the bladder and blood was collected via cardiac puncture with a heparinised needle into a heparinised tube. […] Tissues (brain, heart, kidney, liver, lung, spleen and skin) were removed from the animal, rinsed in saline before being placed in vials and weighed. All samples were stored at −80° C. until they were required for analysis. […] Samples were left in darkness overnight to prevent chemiluminescence. Radioactivity was then determined using a Packard 1500 Liquid Scintillation Analyser. Portions of each tissue (50-100 mg) and aliquots of red blood cells (50-60 mg) were taken in duplicate; tissue solubilizer (0.5 ml) was added to each sample and left overnight at 50° C. The samples were cooled to room temperature before being decolourised with hydrogen peroxide (200 μl) and left for 1 h. The mixture was then neutralised with glacial acetic acid (30 μl) and 12 ml of scintillation fluid was added. The mixture was mixed thoroughly and left overnight in the dark. The samples were assayed for radioactivity. (all volumes of chemicals to be added were doubled for solubulizing the red blood cells)

[4] = 24 hour metabolism study, distribution of radioactivity; assay type: in vivo, Male Wistar rats
Method: [^3H]AQ (54 μmol/kg) was administered i.p to male Wistar rats (200-300 g). Each animal was placed in a wire-bottom metabolism cage with access to food and water. Urine was collected over 24 h, the cage was rinsed with distilled water (10 ml) at the end of the collection period. […] All samples were stored at −80° C. until analysed. Previous ISQ data was obtained for comparison with AQ. […] Samples were left in darkness overnight to prevent chemiluminescence. Radioactivity was then determined using a Packard 1500 Liquid Scintillation Analyser. Portions of each tissue (50-100 mg) and aliquots of red blood cells (50-60 mg) were taken in duplicate; tissue solubilizer (0.5 ml) was added to each sample and left overnight at 50° C. The samples were cooled to room temperature before being decolourised with hydrogen peroxide (200 μl) and left for 1 h. The mixture was then neutralised with glacial acetic acid (30 μl) and 12 ml of scintillation fluid was added. The mixture was mixed thoroughly and left overnight in the dark. The samples were assayed for radioactivity. (all volumes of chemicals to be added were doubled for solubulizing the red blood cells)

[5] = Radioactivity in plasma and red blood cells during 5 h after dosing; assay type: in vivo, Male Wistar rats; conditions: for average plasma level, % of the dose: throughout the 5 h experiment
Method: The animal was anaesthetised and the jugular vein cannulated as described above. To allow blood samples to be taken regularly, the carotid artery was cannulated with 0.58 mm I.D. polythene tubing. The cannula was attached to a heparinised saline syringe to prevent blood escaping from the cannula and to prevent air bubbles from entering the blood stream. The animals were dosed as described above and the clock was started at the end of the dosing period. Blood samples (300 μl) were collected at 15 mins, 30 mins and hourly post-dosing. Heparinised saline was flushed through the cannula after every blood collection to prevent clotting within the tubing. The saline was allowed to drain out of the cannula prior to every collection point. After the fifth hour sample had been collected, all remaining blood within the rat was allowed to drain from the cannula into a heparinised tube. All samples were […] (4000 rpm for 5 min) immediately after collection and the pellet and supernatant were separated. The volume of the plasma was recorded. The tissues were also removed and weighed all samples were stored at -80° C. until analysed. The active components of the plasma were removed via extraction with ether for LC/MS analysis. […] Samples were left in darkness overnight to prevent chemiluminescence. Radioactivity was then determined using a Packard 1500 Liquid Scintillation Analyser. Portions of each tissue (50-100 mg) and aliquots of red blood cells (50-60 mg) were taken in duplicate; tissue solubilizer (0.5 ml) was added to each sample and left overnight at 50° C. The samples were cooled to room temperature before being decolourised with hydrogen peroxide (200 μl) and left for 1 h. The mixture was then neutralised with glacial acetic acid (30 μl) and 12 ml of scintillation fluid was added. The mixture was mixed thoroughly and left overnight in the dark. The samples were assayed for radioactivity. (all volumes of chemicals to be added were doubled for solubulizing the red blood cells)

[6] = LC/MS and radiochromatographic analysis of urinary, biliary and plasma metabolites; assay type: in vivo, Male Wistar rats; conditions: for biliary metabolite identified (main) / glutathione (GSH) conjugates or metabolites found: rat bile; for biliary metabolite identified (main): i.v.; for glutathione (GSH) conjugates or metabolites found: urine or blood; for main compound or metabolite in plasma: rat plasma ether extracts
Method: After the fifth hour sample had been collected, all remaining blood within the rat was allowed to drain from the cannula into a heparinised tube. All samples were centrifiged (4000 rpm for 5 min) immediately after collection and the pellet and supernatant were separated. The volume of the plasma was recorded. The tissues were also removed and weighed all samples were stored at −80° C. until analysed. The active components of the plasma were removed via extraction with ether for LC/MS analysis.
Analysis of Urinary, Binary and Plasma Metabolites of Male Wistar Rats Dosed with [3H]AQ or [^3H]ISQ.
Our samples were analysed using MassLynx software. Aliquots (50-100 μl) of bile, urine and plasma ether extracts, were eluted from a Zorbax SB-18 column with a slow acetonitrile gradient (10-50% over 30 mins) in ammonium acetate (5.0 mM, pH3.8) at 0.9 ml/min. Two Jasco PU-980 pumps were linked to a mixing module, allowing effluent to mix with scintillation fluid prior to reaching the Flo-One A250 _eta radioactive flow detector or allowing the effluent to be delivered to the Quattro II mass spectrometer. Nebulising and drying gas were delivered at a rate of 13 L/h and 300 L/h respectively. The temperature of the LC/MS interface was 70° C. and the capillary voltage was […]. The extent of fragmentation was modulated via altering the cone voltage.

P. bergheri = assay: In vivo activity in the mouse model against P. bergheri; conditions: in words
P. yoelii NS strain = assay: In vivo 4-day test, P. yoelii NS rodent malaria model; design: species or system P. yoelii (Swiss albino mice); conditions: oral administration, standard 4-day test, repeated twice
Method: as §1

[7] = Table 2, chloroquine resistant K1 Plasmodium falciparum, read-out: IC50
[8] = Plasmodium falciparum, chloroquine resistant K1 isolate, n=4, read-out: IC50
[9] = 5 h after i.v. 54 μmol/kg, mean±s.e.m.
[10] = male, Wistar, rat, in vivo, iv, 5 h
[11] = male, Wistar, rat, in vivo, 24 h

SMILES: CCN(CC)CCCC(C)Nc1ccnc2cc(Cl)ccc12 (stereo not drawn) [Chloroquine, chloroquine, reference compound]
IC50 ([1]; Plasmodium falciparum, K1, read-out: IC50 nM): 190 to 250 nM

IC50 [1, 7]: 16.5 nM
SMILES: CCNCc1ccc(Nc2ccnc3c2=CCC(Cl)C=3)cc1O (stereo not drawn) [ISQ1]

IC50 [1, 7]: 25.2 nM
SMILES: CN(C)Cc1ccc(Nc2ccnc3c2=CCC(Cl)C=3)cc1O (stereo not drawn) [ISQ2]

IC50 [1, 7]: 23.8 nM
SMILES: CCCN(CCC)Cc1ccc(Nc2ccnc3c2=CCC(Cl)C=3)cc1O (stereo not drawn) [ISQ3]

IC50 [1, 7]: 14.9 nM
SMILES: CCCCN(CCCC)Cc1ccc(Nc2ccnc3c2=CCC(Cl)C=3)cc1O (stereo not drawn) [ISQ4]

IC50 [1, 7]: 22.7 nM
SMILES: CC(C)NCc1ccc(Nc2ccnc3c2=CCC(Cl)C=3)cc1O (stereo not drawn) [ISQ5]

SMILES: CCN(CC)Cc1ccc(Nc2ccnc3cc(Cl)ccc23)cc1O [Isoquine, 4-N-(3′-hydroxy-4′-[N,N-diethylaminomethyl])anilino-7-chloroquinoline]
IC50 [2]: 9 nM
IC50 [1, 8]: 6 nM
IC50 [1, 7]: 15.7 nM
% of dose excreted into bile [3, 9]: 12.73%
% of dose recovered in skin [3, 9]: 21.46%
% of dose remaining in heart [3, 9]: 0.58%
% of dose remaining in liver [3, 9]: 32.93%
% of dose remaining in plasma [3, 9]: 0.13%
increase in liver accumulation compared with AQ ([3]; after 5 h): approximately 10%
% of dose in tissues ([3]; after 5 h, all tissues): 70.92%
% of dose accounted for (bile, tissues, plasma, urine) ([3]; after 5 h): 87.17%
% of dose excreted into urine ([3]; over 5 h after i.v. 54 μmol/kg, mean±s.e.m.): 3.39%
% of dose remaining in liver ([4]; after 24 h): 5.48%
% of dose remaining in skin ([4]; after 24 h): 5.6%
% of dose remaining in the tissues ([4]; after 24 h, 54 μmol/kg): 13.87%
% of dose in remaining tissues ([4]; after 24 h, tissues other than liver and skin): 2.97%
% of dose removed from liver ([4]; difference between 5 h and 24 h): 27.45%
plasma levels relative to AQ ([5]; over 5 h): 3 fold
average plasma level, % of the dose [5]: 0.095%
% of dose in red blood cells, constant level ([5]; throughout the experiment): 0.12%
formation of toxic or reactive metabolites ([6]; in vivo, in words): does not form toxic metabolites
biliary metabolite identified (main) ([6]; LC/MS): isoquine aldehyde glucuronide metabolite
glutathione (GSH) conjugates or metabolites found ([6]; LC/MS): complete lack of glutathione metabolites
main compound or metabolite in plasma ([6]; LC/MS): parent compound
main compound excreted in urine ([6]; rat urine, LC/MS): parent compound isoquine
in vivo activity against P. bergheri (P. bergheri): superior in vivo activity

IC50 [2]: 18 nM
IC50 [1, 8]: 25 nM
% of dose recovered in skin [3, 9]: 22.12%
% of dose accounted for (bile, tissues, plasma, urine) ([3]; after 5 h): 78.56%
% of dose remaining in heart [3, 10]: 0.34%
% of dose remaining in liver [3, 10]: 20.82%
% of dose remaining in plasma [3, 10]: 0.04%
% of dose removed from liver ([4]; male, Wistar, rat, in vivo): 13.97%
% of dose remaining in liver [4, 11]: 6.85%
% of dose remaining in plasma [4, 11]: 0.02%
% of dose remaining in skin [4, 11]: 7.18%
% of dose in red blood cells after 5 h ([5]; after 5 h): 0.09%
% of dose in red blood cells, initially ([5]; start of 5 h period): 0.12%
average plasma level, % of the dose [5]: approximately 0.034%
biliary metabolite identified (main) ([6]; LC/MS): a glutathione conjugate of AQ
glutathione (GSH) conjugates or metabolites found ([6]; LC/MS): glutathione metabolites were observed
main compound or metabolite in plasma ([6]; LC/MS): desethylAQ
SMILES: CCN(CC)Cc1cc(Nc2ccnc3cc(Cl)ccc23)ccc1O [amodiaquine, reference compound]
ED50 (P. yoelii NS strain; Plasmodium yoelii, in Mus musculus, po, 96 h, read-out: ED50): 7.9 mg/kg
ED50 (P. yoelii NS strain): 7.4 mg/kg
